PubChem BioAssay (NCI)
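Protocol summary: plate cells (96-well), add compound at 5 concentrations, incubate 48 h, interpolate endpoints linearly. Definition used: TGI = concentration required for complete inhibition of growth.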

Experiments:
Experiment in all cases: NCI anticancer screen, dose series, 48 h
A549 NSCLC = tested on: A549 NSCLC
NCI-H460 lung = tested on: NCI-H460 lung
HOP-92 NSCLC = tested on: HOP-92 NSCLC
UO-31 renal = tested on: UO-31 renal
MALME-3M melanoma = tested on: MALME-3M melanoma
SF-295 CNS = tested on: SF-295 CNS
NCI-H226 lung = tested on: NCI-H226 lung
PC-3 prostate = tested on: PC-3 prostate
SK-MEL-5 melanoma = tested on: SK-MEL-5 melanoma
CCRF-CEM leukemia = tested on: CCRF-CEM leukemia

| SMILES | TGI (A549 NSCLC) [µM] | TGI (NCI-H460 lung) [µM] | TGI (HOP-92 NSCLC) [µM] | TGI (UO-31 renal) [µM] | TGI (MALME-3M melanoma) [µM] | TGI (SF-295 CNS) [µM] | TGI (NCI-H226 lung) [µM] | TGI (PC-3 prostate) [µM] | TGI (SK-MEL-5 melanoma) [µM] | TGI (CCRF-CEM leukemia) [µM] |
| --- | --- | --- | --- | --- | --- | --- | --- | --- | --- | --- |
| S=C(Cc1ccc2c(c1)Sc1ccccc1O2)N1CCOCC1 | > 100 | > 100 | > 100 | > 100 | 90.2 | > 100 | > 100 | > 100 | – | – |
| O=C(CCc1cc(O)cc(O)c1)NCCc1cc(OCc2ccccc2)cc(OCc2ccccc2)c1 | 23.6 | 14.4 | 45.3 | 15.3 | – | 25.8 | 51.3 | 23.6 | 25.6 | 50.8 |
| C[C@@H]1CC[C@@]2(C)C(C(=O)O)=CCCC2[C@@]1(C)CC(=O)c1ccoc1 (stereo not given in full) | > 25 | > 25 | > 25 | > 25 | – | > 25 | > 25 | > 25 | > 25 | > 25 |
| COC(=O)C(Cc1cn(C(C)n2cc(CC(NC(C)=O)C(=O)OC)c3ccccc32)c2ccccc12)NC(C)=O (stereo not given) | > 100 | > 100 | > 100 | > 100 | > 100 | > 100 | – | > 100 | > 100 | > 100 |
| OCc1ccc2c(c1)CC1(C2)Cc2cc3c(cc2C1O)CCC3 (stereo not given) | > 70.7 | 17.1 | 34.1 | 24.1 | 19.2 | 12.4 | 28.9 | 11.7 | 12 | > 44.9 |
| O=C(O)c1nc2ccc(C(F)(F)F)cc2[nH]c1=O | > 100 | > 100 | > 100 | > 100 | > 100 | > 100 | > 100 | > 100 | > 100 | > 100 |
| Cc1ccc2c(c1C)C(=O)C1(Cc3cc4c(cc3C1=O)CCC4)C2 (stereo not given) | > 100 | > 100 | > 100 | > 100 | > 100 | > 100 | > 100 | > 100 | > 100 | > 100 |
| CCOC(=O)c1c(N2CCCC2)[nH]c(=O)c(C(c2ccc(OC)cc2)c2c(O)c(C(=O)OCC)c(N3CCCC3)[nH]c2=O)c1O | > 100 | > 100 | 58.6 | > 100 | > 100 | > 100 | > 100 | > 100 | > 100 | > 100 |
| O=c1[nH]c(NCc2ccncc2)nc2nc[nH]c12 | > 100 | > 100 | > 100 | > 100 | > 100 | > 100 | > 100 | > 100 | > 100 | > 100 |
| COC(=O)/C=C(\C)CC/C=C(\C)CCC1OC1(C)C (stereo not given) | 24.1 | 24.2 | 22.8 | 20.8 | 29.1 | 21.3 | 24.8 | 17.4 | 22.4 | 21.3 |
| CC1(C)CC(=O)C2=C(C1)C(c1ccccc1Cl)C1C(=O)CC(C)(C)CC1(O)O2 (stereo not given) | > 100 | > 100 | > 100 | > 100 | > 100 | > 31.6 | > 100 | > 100 | > 100 | > 94.8 |
| CCCCI(O)OS(=O)(=O)c1ccc(C)cc1 | > 100 | – | > 100 | 55.4 | – | > 100 | > 100 | > 100 | > 100 | 76.3 |
| O=c1c(F)cn2c(=O)n1CCCCCCCn1c(=O)c(F)cn(c1=O)CCCCCCC2 | > 100 | > 100 | > 100 | > 100 | 88.8 | > 100 | > 100 | > 100 | > 100 | > 100 |
| c1ccc(C2=NC3OC2c2ccccc23)cc1 (stereo not given) | > 10 | > 10 | > 10 | – | > 10 | > 10 | > 10 | > 10 | > 10 | > 10 |
| CN(/N=C1\C(=O)Nc2ccccc21)c1ccccc1 | > 100 | > 100 | > 100 | > 100 | > 100 | > 100 | > 100 | > 100 | > 100 | > 100 |
| Cc1nc2ccc(Cl)cc2c(-n2ccnc2)c1CCn1ccnc1 | > 100 | > 100 | 57.8 | 74.6 | 97 | > 100 | 53.2 | 72.1 | 46.4 | 69.3 |
| [N-]=[N+]=CC(=O)C1CCCN1C(=O)c1ccccc1 (stereo not given) | > 10 | > 10 | > 10 | > 10 | > 10 | > 10 | > 10 | > 10 | > 10 | > 10 |
| CCOC(=O)CSc1nc(N)c2c(-c3ccccc3)c3c(nc2n1)CCCC3 | > 100 | > 100 | > 100 | > 100 | > 100 | > 100 | > 100 | > 100 | > 100 | > 100 |
| CC(C)C(Br)CCC1=CCC(Br)(Br)C1 (stereo not given) | 33.8 | 31.7 | 19.5 | 21.9 | 27.9 | 33.4 | 26.9 | 28.5 | 18.3 | > 100 |
| CCc1c(O)cc(=O)oc1-c1ccc(OC)c(OC)c1 | > 100 | > 100 | > 100 | > 100 | – | > 100 | – | > 100 | > 100 | > 100 |
| CC(=O)Nc1nc(Cl)cc(NCC2(CO)CCC2)n1 | > 100 | > 100 | > 100 | > 100 | > 100 | > 100 | > 100 | > 100 | > 100 | > 100 |
| Cn1c2ccccc2c2ccc3c(c21)C(=O)c1ccc2c4ccccc4n(C)c2c1C3=O | > 100 | > 100 | > 100 | > 100 | > 100 | > 100 | > 100 | > 100 | > 100 | > 100 |
